The source made the active and inactive calls.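 Rule for the calls: active = response above 60% of the acetylcholine maximum at the M5 muscarinic receptor, read as positive allosteric modulation; inactive = the rest.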
Biological target: Muscarinic acetylcholine receptor M3 (Homo sapiens) (UniProt P20309)
Assay: ACh potentiation at muscarinic M3 subtype – cell-based, CHO-K1 hM3, calcium flux, ACh EC20, selectivity assay for M5 PAM project, dose response (AID 743115)
Settings: CHO-K1 hM3, calcium flux Fluo-4, ACh EC20 potentiation; for % ACh max response: at 30 µM (top of the series)

Chain of Muscarinic acetylcholine receptor M3 (Homo sapiens) (P20309 whole entry, looked up): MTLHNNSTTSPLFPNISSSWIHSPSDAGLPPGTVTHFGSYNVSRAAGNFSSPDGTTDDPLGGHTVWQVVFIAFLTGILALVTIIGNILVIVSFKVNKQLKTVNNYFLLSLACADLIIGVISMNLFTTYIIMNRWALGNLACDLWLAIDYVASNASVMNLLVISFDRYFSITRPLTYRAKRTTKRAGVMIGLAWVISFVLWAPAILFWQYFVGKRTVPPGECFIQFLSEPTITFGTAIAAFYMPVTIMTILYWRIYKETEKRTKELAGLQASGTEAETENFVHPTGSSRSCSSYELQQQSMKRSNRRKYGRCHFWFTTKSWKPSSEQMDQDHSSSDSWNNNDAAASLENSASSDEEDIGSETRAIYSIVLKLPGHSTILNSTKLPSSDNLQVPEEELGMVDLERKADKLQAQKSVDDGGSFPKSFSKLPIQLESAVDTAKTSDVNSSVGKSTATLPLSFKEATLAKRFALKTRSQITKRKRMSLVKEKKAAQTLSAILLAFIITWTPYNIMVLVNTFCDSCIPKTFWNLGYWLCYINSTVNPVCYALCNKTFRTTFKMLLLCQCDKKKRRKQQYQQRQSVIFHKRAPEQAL

EC50 | % ACh max response | Structure (SMILES)
520 nM |  | CCN(Cc1ccccc1Cl)C(=O)C1CCN(S(=O)(=O)c2ccc3[nH]ncc3c2)CC1
 | inactive | CCN(Cc1ccccc1)C(=O)C1CCN(S(=O)(=O)c2ccc(OC)cc2)CC1
 | inactive | CCN(C(=O)C1CCN(S(=O)(=O)c2ccc(OC)cc2)CC1)[C@H](C)c1ccccc1

More lines, now with the values behind:

Structure (SMILES) | EC50 | % ACh max response
CCN(Cc1ccccc1C(F)(F)F)C(=O)C1CCN(S(=O)(=O)c2ccc3[nH]ncc3c2)CC1 | 2080 nM | 
CCN(Cc1ccccc1C(F)(F)F)C(=O)C1(F)CCN(S(=O)(=O)c2ccc3[nH]ncc3c2)CC1 | 1770 nM | 
CCN(Cc1ccccc1C(F)(F)F)C(=O)C1CCN(S(=O)(=O)c2ccc3cn[nH]c3c2)CC1 | 4670 nM | 
CCN(Cc1ccccc1)C(=O)C1CCN(S(=O)(=O)c2ccc3c(c2)OCCO3)CC1 |  | inactive
CCN(Cc1ccccc1Cl)C(=O)C1CCN(S(=O)(=O)c2ccc3cn[nH]c3c2)CC1 | 2890 nM | 
CCN(C(=O)C1CCN(S(=O)(=O)c2ccc3[nH]ncc3c2)CC1)[C@H](C)c1ccccc1 | 2170 nM | 
